Measurements: paper PMC10550954, “A high throughput screen for pharmacological inhibitors of the carbohydrate response element” (Scientific Data, 2023)

Experiments:
[1] = tested on: ChoRE-LUC (ChoRE driven transcription); assay: ChoRE-LUC luciferase reporter assay in INS-1E ChoRE-LUC cells (BrightGlo, 24 h, 25 mM glucose); assay type: cell-based, Rat; settings: 24 h treatment, 25 mM glucose media, 2% FBS
Description: For ReFRAME library screening, 10 nL of 2 mM DMSO stock concentrations of compound were prespotted into 5 µL of assay medium (RPMI with 2% FBS, 10 mM HEPES, 1 mM sodium pyruvate, 25 mM D-glucose (Sigma), and 1% penicillin/streptomcycin) in white 384-well plates (Grenier) using an Echo Acoustic Liquid Handler instrument (Labcyte) before the addition of INS-1E ChoRE-LUC cells (5000 cells in 45 µL assay medium per well). Cells were incubated for 24 h before 30 µL of BrightGlo Luciferase Assay solution (diluted 1:3 in water, Promega) was added to each well and luminescence signal values were recorded with an Envision plate reader (PerkinElmer). This protocol was used as the ReFRAME library was supplied from off-site and necessitated pre-spotting for efficient transfer of materials. For the screening of all other libraries, which was performed in-house, INS-1E ChoRE-LUC cells were plated in a white 384-well plate (5000 cells in 50 µL assay medium per well) and incubated for 24 h. 100 nL of DMSO stock concentrations of compound were transferred to each well using a Bravo instrument with a pintool head (Agilent). Cells were incubated for 24 h before 30 µL of BrightGlo Luciferase Assay solution was added to each well and luminescence signal values were recorded with an Envision plate reader.
(§1) Reporter activity and cell viability data was normalized to the DMSO control wells in each plate. Ten or twelve dose-response points and three biological replicates were used to determine dose-response curves using the four-parameter inhibitor dose-response curve fitting function in Prism software (Graphpad). All graphed data are plotted as the mean and the s.e.m denoted with error bars.
To establish a reliable assay with a suitable dynamic range for high-throughput screening, we first optimized the composition of the DNA regulatory sequences within the ChoRE-LUC reporter. […] To determine whether this combination of regulatory elements was robust enough to test general ChoRE activity, we constructed six pGL4-based luciferase reporter plasmids with different numbers and/or combinations of ChoRE and FOXO sequences from the promoter of the human TXNIP gene (Fig. 3a). The wild-type (WT) sequence represents the intact minimal promoter of the TXNIP gene (GRCh38.p14, chr1:145,996,639–145,996,759). The six plasmids were transiently transfected into INS-1E cells using cationic lipid-based transfection reagents and the induction of luciferase after 24 h in 25 mM glucose containing media was compared (Fig. 3b). In addition, we tested various glucose concentrations in the assay media to determine the concentration that results in the highest stimulation. […] The WT ChoRE-LUC construct was then used to generate an INS-1E stable cell line (INS-1E ChoRE-LUC) for screening in 384-well plate format. For high-throughput screening, the treatment time, serum percentage in media, and cell count per well were optimized further. The final assay design consisted of 5,000 INS-1E ChoRE-LUC cells per well of a 384-well plate in 25 mM glucose media supplemented with 2% FBS and a compound treatment time of 24 h.

[2] = Cytotoxicity screening (CellTiterGlo cell viability) in INS-1E ChoRE-LUC cells; assay type: cell-based; settings: rat, 24 h treatment
Description: INS-1E ChoRE-LUC cells were plated in a white 384-well plate (5000 cells in 50 µL assay medium per well) and incubated for 24 h. 100 nL of DMSO stock concentrations of compound were transferred to each well using a Bravo instrument (Agilent) affixed with a pintool head (V&P Scientific). Cells were incubated for 24 h before 30 µL of CellTiterGlo Cell Viability Assay solution (diluted 1:6 in water, Promega) was added to each well and luminescence signal values were recorded with an Envision plate reader.
as §1

TXNIP expression = tested on: TXNIP expression; set-up: method as in PMID 28502980; settings: compared with the ChoRE-LUC IC50 of this paper; read-out: previously reported measurement (IC50); cited from earlier work
[3] = Rattus norvegicus, INS-1E, 24 h

SMILES | IC50 [1, 3] [µM] | IC50 at 24 h [2] [µM] | IC50 [1] [µM] | IC50 (TXNIP expression) [µM]
CCOC(=O)c1[nH]c2ccccc2c1NC(=O)/C=C/c1ccc(OC)c(OC)c1 [C175-0061] | 1.11 | > 20 | – | –
CC[C@H](Nc1nc(NCc2cnc(C)cc2C)c2ncn(C(C)C)c2n1)[C@@H](C)O [CYC065, reference compound] | 0.58 | 0.85 | – | –
FC(F)(F)c1ccc(CN2CCC(F)(c3noc(-c4ccncc4)n3)C2)cc1 (stereo not shown) [SC41-0173] | 8.25 | > 20 | – | –
Fc1cc(Br)ccc1CN1CCC(F)(c2noc(-c3ccncc3)n2)C1 (stereo not shown) [SC41-0178] | 9.83 | > 20 | – | –
Cc1cc(C)cc(C(=O)N2CC3(CC(CCOCc4cccc(F)c4)CO3)C2)c1 (stereo not shown) [SD60-0149] | 10.6 | > 20 | – | –
O=C(c1ccc(F)c(Cl)c1)N1CC2(CC(CCOCc3cccc(F)c3)CO2)C1 (stereo not shown) [SD60-0151] | 9.5 | > 20 | – | –
CCS(=O)(=O)Oc1ccc(CN(Cc2ccc(F)cc2)C(=O)/C=C/c2ccccc2)cc1 [V029-2992] | 2.85 | > 20 | 2.9 | –
CC(=O)c1ccc(OCCn2cnc3c(N)ncnc32)cc1 [W2476, reference compound] | – | – | 1.33 | 1.7
O=C(NCc1ccco1)C(=Cc1ccc(Cl)c(Cl)c1)C(=O)NCc1ccco1 [Y070-0096] | 1.37 | 3.98 | – | –
